ChEMBL document CHEMBL1126692, “Structure-activity relationships for mitomycins. Application of the distance and charge analysis method” (J Med Chem, 1993)

Assays:
[1] = Anti cancer activity was determined as lethal dose; format: organism-based; settings: mouse, in vivo
[2] = organism: Mus musculus; experiment: Anti cancer activity was determined as effective dose; format: functional

Row | Compound | LD50 [1] | ED50 [2]
1 | C=C1C2=C(C(=O)C(C)=C(OC)C2=O)N2C[C@@H]3N[C@@H]3[C@]12OC | 13 mg/kg | 7.5 mg/kg
2 | C=C1C2=C(C(=O)C(C)=C(N)C2=O)N2C[C@@H]3N[C@@H]3[C@]12OC | 75 mg/kg | 18 mg/kg
3 | COC1=C(C)C(=O)C2=C(C1=O)[C@@H](COC(N)=O)[C@@]1(OC)[C@H]3N[C@H]3CN21 [MITOMYCIN A] | 2.1 mg/kg | 1.1 mg/kg
4 | C=C1C2=C(C(=O)C(C)=C(OC)C2=O)N2C[C@H]3[C@H](N3C)[C@]12OC (some centres not stated) [MITOMYCIN G] | 22 mg/kg | 35 mg/kg
5 | C=C1C2=C(C(=O)C(C)=C(OC)C2=O)N2C[C@H]3[C@H](N3C)[C@]12O (some centres not stated) [MITOMYCIN H] | 12 mg/kg | 6.8 mg/kg
6 | C=C1C2=C(C(=O)C(C)=C(N)C2=O)N2C[C@H]3[C@H](N3C)[C@]12OC (some centres not stated) [MITOMYCIN K] | 130 mg/kg | 100 mg/kg
7 | C=C1C2=C(C(=O)C(C)=C(N)C2=O)N2C[C@H]3[C@H](N3C)[C@]12O (some centres not stated) [MITOMYCIN Z] | 210 mg/kg | 82 mg/kg
8 | CO[C@@]12[C@H](COC(N)=O)C3=C(C(=O)C(C)=C(N)C3=O)N1C[C@@H]1N[C@@H]12 [MITOMYCIN] | – | 4.4 mg/kg
9 | CO[C@@]12[C@H](COC(N)=O)C3=C(C(=O)C(C)=C(N)C3=O)N1C[C@H]1[C@@H]2N1C (some centres not stated) [PORFIROMYCIN] | 57 mg/kg | 22 mg/kg
